The source of these data is patent US20080207641A1 (Synta Pharmaceuticals Corp., priority 2006, published 2008).

Broadly, the solubility is the concentration that dissolves in the medium under given conditions. As a reminder, the IC50 is the concentration needed to halve the response being measured. A low value points to higher potency.

Structures are written as SMILES. Values after ≈ are worked out from the molar mass of the structure shown. Where two headings read alike, the source gives them in different places.

A short description of series [1]: Solubility in simulated gastric fluids. Format: physicochemical. From the text: Solubility in Simulated Gastric Fluids
The subject of series [2] is IL-2 production. The series can be described thus: Inhibition of IL-2 production in PHA-activated Jurkat cells (ELISA). Format: cell-based. Conditions: Homo sapiens, 20 h, PHA 2.5 μg/mL, 20 hours at 37° C., IL-2 ELISA. As for the experimental part:
Jurkat cells were placed in a 96 well plate (0.5 million cells per well in 1% FBS medium) then a test compound of this invention was added at different concentrations. After 10 minutes, the cells were activated with PHA (final concentration 2.5 μg/mL) and incubated for 20 hours at 37° C. under CO2. The final volume was 200 μL. Following incubation, the cells were centrifuged and the supernatants collected and stored at −70° C. prior to assaying for IL-2 production. A commercial ELISA kit (IL-2 Eli-pair, Diaclone Research, Besancon, France) was used to detect production of IL-2, from which dose response curves were obtained. The IC50 value was calculated as the concentration at which 50% of maximum IL-2 production after stimulation was inhibited versus a non-stimulation control.
A general note: An ELISA detects its analyte on a solid surface through an enzyme-linked reagent.

`CC1=C(c2ccc(NC(=O)c3ccc(F)cc3F)nc2)CN(c2nnn(C)n2)CC1` [Compound 21, 2,4-difluoro-N-(5-(4-methyl-1-(2-methyl-2H-tetrazol-5-yl)-1,2,5,6-tetrahydropyridin-3-yl)pyridin-2-yl)benzamide] displayed a solubility in series [1] of 150 µM (≈ 61.7 µg/mL). As to `O=C(Nc1ccc(C2=C(Cl)CCN(c3nccs3)C2)cn1)c1ccc(F)cc1F` [Compound 27], the IC50 in series [2] was 75 to 150 nM. In series [1] (simulated gastric fluid), the concentration in solution (solubility) came to 50 µM (≈ 21.6 µg/mL). Turning to `CC1=C(c2cnc(NC(=O)c3c(F)cccc3Cl)cn2)CN(c2nnn(C)n2)CC1` [Compound 35, 2-chloro-6-fluoro-N-(5-(4-methyl-1-(2-methyl-2H-tetrazol-5-yl)-1,2,5,6-tetrahydropyridin-3-yl)pyrazin-2-yl)benzamide], in series [1] (simulated gastric fluid), the solubility is 25 µM (≈ 10.7 µg/mL).

For the compound `CC(C)=CC(=O)Nc1ccc(C2=C(C)CCN(c3nnn(C)n3)C2)cn1` [Compound 28, 3-methyl-N-(5-(4-methyl-1-(2-methyl-2H-tetrazol-5-yl)-1,2,5,6-tetrahydropyridin-3-yl)pyridin-2-yl)but-2-enamide], the solubility in series [1] (simulated gastric fluid) was 50 µM (≈ 17.7 µg/mL). As for `CC1=C(c2ccc(NC(=O)c3c(F)cncc3F)cc2)CN(c2nccs2)CC1` [Compound 32, 3,5-difluoro-N-(4-(4-methyl-1-(thiazol-2-yl)-1,2,5,6-tetrahydropyridin-3-yl)phenyl)isonicotinamide], the IC50 in series [2] was not above 35 nM. In addition, in series [1], the solubility is reported as 150 µM (≈ 61.9 µg/mL).

The compound `CC1=C(c2cnc(NC(=O)c3ccccc3F)cn2)CN(c2nnn(C)n2)CC1` [Compound 33, 2-fluoro-N-(5-(4-methyl-1-(2-methyl-2H-tetrazol-5-yl)-1,2,5,6-tetrahydropyridin-3-yl)pyrazin-2-yl)benzamide] showed an IC50 in series [2] of 75 to 150 nM. Also, in series [1], the solubility is on record as 150 µM (≈ 59.2 µg/mL). Regarding `CSc1ncccc1C(=O)Nc1ccc(C2=C(C)CCN(c3nccs3)C2)cc1` [Compound 14, N-(4-(4-methyl-1-(thiazol-2-yl)-1,2,5,6-tetrahydropyridin-3-yl)phenyl)-2-(methylthio)nicotinamide], the IC50 in series [2] was in the range of 150 to 1000 nM. `Cc1cncnc1C(=O)Nc1ccc(C2=C(C=O)CCN(c3nccs3)C2)cc1` [Compound 1, N-(4-(4-formyl-1-(thiazol-2-yl)-1,2,5,6-tetrahydropyridin-3-yl)phenyl)-5-methylpyrimidine-4-carboxamide] came in with an IC50 in series [2] of 75 to 150 nM. With `Cn1nnc(N2CCC(Cl)=C(c3ccc(NC(=O)c4c(F)cccc4F)nc3)C2)n1` [Compound 25, N-(5-(4-chloro-1-(2-methyl-2H-tetrazol-5-yl)-1,2,5,6-tetrahydropyridin-3-yl)pyridin-2-yl)-2,6-difluorobenzamide], the IC50 in series [2] was not above 35 nM. Moreover, the solubility in series [1] (simulated gastric fluid) was 50 µM (≈ 21.6 µg/mL).

Consider `CC1=C(c2cnc(NC(=O)c3ccccc3F)cn2)CN(c2nccs2)CC1` [Compound 31, 2-fluoro-N-(5-(4-methyl-1-(thiazol-2-yl)-1,2,5,6-tetrahydropyridin-3-yl)pyrazin-2-yl)benzamide], for which the IC50 in series [2] is 35 to 75 nM. In series [1] (simulated gastric fluid), this compound showed a solubility of 25 µM (≈ 9.89 µg/mL). `CC1=C(c2ccc(NC(=O)c3c(F)cccc3Cl)nc2)CN(c2nnn(C)n2)CC1` [Compound 23, 2-chloro-6-fluoro-N-(5-(4-methyl-1-(2-methyl-2H-tetrazol-5-yl)-1,2,5,6-tetrahydropyridin-3-yl)pyridin-2-yl)benzamide] came in with a concentration for half-maximal inhibition (IC50) in series [2] of more than 1000 nM. This compound also yielded a solubility in series [1] (simulated gastric fluid) of 25 µM (≈ 10.7 µg/mL). On the same counts, the results for `CC1=C(c2ccc(NC(=O)c3c(O)cccc3F)cc2)CN(c2nccs2)CC1` [Compound 13, 2-fluoro-6-hydroxy-N-(4-(4-methyl-1-(thiazol-2-yl)-1,2,5,6-tetrahydropyridin-3-yl)phenyl)benzamide] are 150 to 1000 nM and 50 µM (≈ 20.5 µg/mL).

`CC1=C(c2ccc(NC(=O)c3c(F)cccc3F)nc2)CN(c2nccn2C)CC1` [Compound 22, 2,6-difluoro-N-(5-(4-methyl-1-(1-methyl-1H-imidazol-2-yl)-1,2,5,6-tetrahydropyridin-3-yl)pyridin-2-yl)benzamide] showed an IC50 in series [2] of more than 1000 nM. On the same count and under the same terms, under `CC1=C(c2ccc(NC(=O)c3ccccc3C(F)(F)F)cc2)CN(c2nccs2)CC1` [Compound 9, N-(4-(4-methyl-1-(thiazol-2-yl)-1,2,5,6-tetrahydropyridin-3-yl)phenyl)-2-(trifluoromethyl)benzamide] stands 35 to 75 nM; under `CC1=C(c2ccc(NC(=O)C3c4ccccc4-c4ccccc43)cc2)CN(c2nccs2)CC1` [Compound 17, N-(4-(4-methyl-1-(thiazol-2-yl)-1,2,5,6-tetrahydropyridin-3-yl)phenyl)-9H-fluorene-9-carboxamide], 150 to 1000 nM.

Compound `CC1=C(c2cnc(NC(=O)c3ccncc3F)cn2)CN(c2nccs2)CC1` [Compound 4, 3-fluoro-N-(5-(4-methyl-1-(thiazol-2-yl)-1,2,5,6-tetrahydropyridin-3-yl)pyrazin-2-yl)isonicotinamide] yielded an IC50 in series [2] not above 35 nM. For the same compound, the solubility in series [1] (simulated gastric fluid) is 50 µM (≈ 19.8 µg/mL). In turn, `CC1=C(c2ccc(NC(=O)c3c(Cl)cccc3Cl)cc2)CN(c2nccs2)CC1` [Compound 10, 2,6-dichloro-N-(4-(4-methyl-1-(thiazol-2-yl)-1,2,5,6-tetrahydropyridin-3-yl)phenyl)benzamide] yielded an IC50 in series [2] of 75 to 150 nM. Besides, the solubility in series [1] (simulated gastric fluid) is 50 µM (≈ 22.2 µg/mL). In series [2], `CC1=C(c2ccc(NCc3c(F)cccc3F)cc2)CN(c2nccs2)CC1` [Compound 5, N-(2,6-difluorobenzyl)-4-(4-methyl-1-(thiazol-2-yl)-1,2,5,6-tetrahydropyridin-3-yl)aniline] yielded an IC50 not above 35 nM. The solubility in series [1] (simulated gastric fluid) was 50 µM (≈ 19.9 µg/mL). `O=C(Nc1ccc(C2=C(Cl)CCN(c3nccs3)C2)cn1)c1c(F)cccc1F` [Compound 26, N-(5-(4-chloro-1-(thiazol-2-yl)-1,2,5,6-tetrahydropyridin-3-yl)pyridin-2-yl)-2,6-difluorobenzamide] had a concentration for half-maximal inhibition (IC50) in series [2] not above 35 nM. The concentration in solution in series [1] (simulated gastric fluid) (solubility) was 100 µM (≈ 43.3 µg/mL). On the same counts, the results for `CC1=C(c2ccc(NC(=O)c3ccccc3F)cc2)CN(c2nccs2)CC1` [Compound 12, 2-fluoro-N-(4-(4-methyl-1-(thiazol-2-yl)-1,2,5,6-tetrahydropyridin-3-yl)phenyl)benzamide] are not above 35 nM and 50 µM (≈ 19.7 µg/mL). In series [2], `CC1=C(c2ccc(NC(=O)c3c(F)cccc3F)nc2)CN(c2nnn(C)n2)CC1` [Compound 6, 2,6-difluoro-N-(5-(4-methyl-1-(2-methyl-2H-tetrazol-5-yl)-1,2,5,6-tetrahydropyridin-3-yl)pyridin-2-yl)benzamide] came in with an IC50 not above 35 nM. Besides, the solubility in series [1] (simulated gastric fluid) was 50 µM (≈ 20.6 µg/mL). Turning to `CC1=C(c2cnc(NC(=O)c3ccc(F)cc3F)cn2)CN(c2nnn(C)n2)CC1` [Compound 24, 2,4-difluoro-N-(5-(4-methyl-1-(2-methyl-2H-tetrazol-5-yl)-1,2,5,6-tetrahydropyridin-3-yl)pyrazin-2-yl)benzamide], the IC50 in series [2] lay in the range of 75 to 150 nM. This compound showed a solubility in series [1] (simulated gastric fluid) of 50 µM (≈ 20.6 µg/mL). The compound `CC1=C(c2cnc(NC(=O)c3c(F)cccc3Cl)cn2)CN(c2nccs2)CC1` [Compound 20, 2-chloro-6-fluoro-N-(5-(4-methyl-1-(thiazol-2-yl)-1,2,5,6-tetrahydropyridin-3-yl)pyrazin-2-yl)benzamide] gave an IC50 in series [2] not above 35 nM. Also, the solubility in series [1] is 150 µM (≈ 64.5 µg/mL). `CC1=C(c2ccc(NCc3c(F)cccc3F)nc2)CN(c2nccs2)CC1.Cl.Cl` [Compound 7, N-(2,6-difluorobenzyl)-5-(4-methyl-1-(thiazol-2-yl)-1,2,5,6-tetrahydropyridin-3-yl)pyridin-2-amine dihydrochloride] returned an IC50 in series [2] of 35 to 75 nM. Also, the solubility in series [1] (simulated gastric fluid) was 100 µM. On the same counts, the results for `CC1=C(c2cnc(NC(=O)c3c(F)cccc3F)cn2)CN(c2nnn(C)n2)CC1` [Compound 2, 2,6-difluoro-N-(5-(4-methyl-1-(2-methyl-2H-tetrazol-5-yl)-1,2,5,6-tetrahydropyridin-3-yl)pyrazin-2-yl)benzamide] are 35 to 75 nM and 50 µM (≈ 20.6 µg/mL).

Regarding `CC1=C(c2cnc(NC(=O)c3c(F)cccc3F)cn2)CN(c2nnnn2C)CC1` [Compound 3, 2,6-difluoro-N-(5-(4-methyl-1-(1-methyl-1H-tetrazol-5-yl)-1,2,5,6-tetrahydropyridin-3-yl)pyrazin-2-yl)benzamide], the IC50 in series [2] is more than 1000 nM.

For the compound `O=C(Nc1ccc(-c2cc(-c3nccs3)ccc2Cl)cc1)c1c(O)cccc1F` [Compound 18, N-(2′-chloro-5′-(thiazol-2-yl)biphenyl-4-yl)-2-fluoro-6-hydroxybenzamide], the IC50 in series [2] was in the range of 75 to 150 nM. Take `CC1=C(c2ccc(NC(=O)c3ccc(F)cc3F)cc2)CN(c2nccs2)CC1` [Compound 16, 2,4-difluoro-N-(4-(4-methyl-1-(thiazol-2-yl)-1,2,5,6-tetrahydropyridin-3-yl)phenyl)benzamide]: the IC50 in series [2] is not above 35 nM. For the same compound, the solubility in series [1] is given as 150 µM (≈ 61.7 µg/mL). `CC1=C(c2ccc(NC(=O)c3c(F)cccc3C(F)(F)F)cc2)CN(c2nccs2)CC1` [Compound 8, 2-fluoro-N-(4-(4-methyl-1-(thiazol-2-yl)-1,2,5,6-tetrahydropyridin-3-yl)phenyl)-6-(trifluoromethyl)benzamide]: in series [2], the half-inhibitory concentration (IC50) was 75 to 150 nM.

For the compound `CC1=C(c2ccc(NC(=O)c3ccc(F)cc3F)cc2)CN(c2nccs2)CC1.Cl` [Compound 19, 2,4-difluoro-N-(4-(4-methyl-1-(thiazol-2-yl)-1,2,5,6-tetrahydropyridin-3-yl)phenyl)benzamide hydrochloride], the solubility in series [1] is 150 µM.

The compound `CC1=C(c2cnc(NC(=O)c3c(F)cncc3F)cn2)CN(c2nccs2)CC1.Cl` [Compound 34, 3,5-difluoro-N-(5-(4-methyl-1-(thiazol-2-yl)-1,2,5,6-tetrahydropyridin-3-yl)pyrazin-2-yl)isonicotinamide hydrochloride] had a solubility in series [1] (simulated gastric fluid) of 25 µM.
